Test results reported in US20260033466A1, “METHOD AND ANIMAL MODEL FOR INDUCING BCC TUMORS” (FELDAN BIO INC., priority 2022, published 2026).

Experiments:
[1] = test system: GFP (indicative of Ptch1 and p53 shRNA expression); assay: Immunofluorescence of GFP in skin of BCC mice after induction, no UV-B; assay type: in vivo, mouse; conditions: absence of UV, fluorescence microscopy of skin sections, FIG. 4
Protocol: Positive GFP fluorescence is indicative of Ptch1 and p53 shRNA expression. […] Positive GFP fluorescence is indicative of Ptch1 and p53 shRNA expression.
For histological staining by immunofluorescence, sections were incubated 5 minutes in room temperature PBS to remove the OCT compound and then drained as much as possible. Slides were then blocked in BSA 3% and stained with anti-GFP antibody (ab6556 Abcam) or anti-Ptch1 (ThermoFisher PA5-87508) or anti-CK14 (BioLegend™ #906004) O/N at 4° C. Sections were then washed thrice (5 minutes each) with PBST and incubated with fluorophore-conjugated antibodies. Following washes (3×5 minutes), 100 μL per slide of ProLong™ Glass NucBlue™ (Invitrogen™) were applied and a coverslip. Slides were incubated overnight in the dark prior to imaging. Slides were imaged within 1-4 days after mounting and left in the dark until that time.
Next, shRNA expression was assessed in the skin of mice, either untreated, or after induction with either tamoxifen alone, doxycycline alone, or tamoxifen/doxycycline in the absence of UV.

[2] = test system: BCC tumors; assay: Anti-BCC treatment of induced BCC mice (tamoxifen/doxycycline and UV-B); assay type: in vivo, mouse; conditions: begun 37-43 weeks post-induction
[3] = test system: mouse Ptch1; assay: shRNA knockdown efficiency reporter assay (Yuan et al. 2014); assay type: cell-based; conditions: Ptch1 mRNA expression normalized to shRen713 (positive control); FIG. 2
Protocol: Knockdown efficiency was calculated by Ptch1 mRNA expression normalized to shRen713 ([…]).
Knockdown efficiency was calculated by Ptch1 mRNA expression normalized to shRen713 ([…]), a reporter shRNA targeting Renilla Luciferase 713.

CC/C(=C(\c1ccccc1)c1ccc(OCCN(C)C)cc1)c1ccccc1 [tamoxifen]
GFP expression in skin (shRNAs targeting Ptch1 and p53) [1]: no expression of GFP

CS(=O)(=O)c1ccc(C(=O)Nc2ccc(Cl)c(-c3ccccn3)c2)c(Cl)c1 [vismodegib]
tumor appearance (scabbing/crusting) ([2]; oral daily via gastric gavage 5 mg/kg, after 18-25 days of treatment, FIG. 12): visible signs of scabbing/crusting of the tumors

CO[C@H]1C[C@@H]2CC[C@@H](C)[C@@](O)(O2)C(=O)C(=O)N2CCCC[C@H]2C(=O)O[C@H]([C@H](C)C[C@@H]2CC[C@@H](OCCO)[C@H](OC)C2)CC(=O)[C@H](C)/C=C(\C)[C@@H](O)[C@@H](OC)C(=O)[C@H](C)C[C@H](C)/C=C/C=C/C=C/1C [everolimus]
tumor appearance (scabbing/crusting) ([2]; i.p. 3 mg/kg, after 7-12 days of treatment, FIG. 13): visible signs of scabbing/crusting of the tumors

B1: Ptch1.2559: shRNA targeting mouse Ptch1, nucleobases 2776-2796 of SEQ ID NO: 12; selected for the BCC model (nucleic acid)
guide: TCATGCCAAACAATTATAAAATAGTGAAGCCACAGATGTATTTTATAATTGTTTGGCATGA
knockdown efficiency [3]: 101.24%
